Assay results published in paper PMC9658017, “Hydroxygenkwanin Improves the Efficacy of Cytotoxic Drugs in ABCG2-Overexpressing Multidrug-Resistant Cancer Cells” (International Journal of Molecular Sciences, 2022).

Target: T1, ABCG2 (Homo sapiens, UniProt Q9UNQ0)
T1 sequence (Q9UNQ0 1-655): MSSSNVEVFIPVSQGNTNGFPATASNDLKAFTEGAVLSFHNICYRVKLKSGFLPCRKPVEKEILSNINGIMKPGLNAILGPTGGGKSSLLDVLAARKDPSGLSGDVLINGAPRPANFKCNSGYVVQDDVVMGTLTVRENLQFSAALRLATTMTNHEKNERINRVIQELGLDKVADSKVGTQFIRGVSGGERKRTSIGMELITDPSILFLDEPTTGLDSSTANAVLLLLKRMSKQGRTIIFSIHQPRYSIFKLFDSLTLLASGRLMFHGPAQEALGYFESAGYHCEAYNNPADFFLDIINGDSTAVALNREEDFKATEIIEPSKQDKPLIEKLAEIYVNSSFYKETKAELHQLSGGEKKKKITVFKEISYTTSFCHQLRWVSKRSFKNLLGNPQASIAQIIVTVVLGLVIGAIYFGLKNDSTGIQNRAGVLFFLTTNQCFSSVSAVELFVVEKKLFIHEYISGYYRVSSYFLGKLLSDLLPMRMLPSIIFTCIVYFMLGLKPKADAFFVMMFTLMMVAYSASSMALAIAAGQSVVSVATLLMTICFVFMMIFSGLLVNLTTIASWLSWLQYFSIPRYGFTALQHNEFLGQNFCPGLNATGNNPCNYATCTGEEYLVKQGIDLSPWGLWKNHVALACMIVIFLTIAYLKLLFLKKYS
Experiment: biochemical

EC50: ~19 nM
Structure (SMILES): COc1cc(O)c2c(=O)cc(-c3ccc(O)c(O)c3)oc2c1 [HGK, Hydroxygenkwanin]
